Reference: paper PMC5840523, “Assessment of a pretomanid analogue library for African trypanosomiasis: Hit-to-lead studies on 6-substituted 2-nitro-6,7-dihydro-5H-imidazo[2,1-b][1,3]thiazine 8-oxides” (Bioorganic & Medicinal Chemistry Letters, 2018)
Values after ≈ are worked out from the molar mass of the structure shown. Read-outs that look alike come from different tables or passages of the source.

Experiments:
[1] = tested on: T. b. brucei; design: method as in PMID 20439607; details: read-out: IC50 versus T. b. brucei; cited from earlier work
[2] = design: method as in PMID 25141257; details: cited from earlier work
[3] = tested on: T. b. brucei 427; assay: T. b. brucei 427 growth inhibition (Scynexis); assay type: cell-based, Trypanosoma brucei brucei
[4] = tested on: L929 mouse fibroblasts; assay: Cytotoxicity toward L929 mouse fibroblasts (Scynexis); assay type: cell-based
[5] = Mouse liver S9 stability; assay type: in vitro ADME; details: CD-1, mouse, mouse liver S9 subcellular fraction, half-life in mouse liver S9 fraction; read-out: Mouse S9 t1/2
[6] = Kinetic aqueous solubility in pH 7.4 PBS; assay type: physicochemical
Source text: Table 1 Inhibitory potency, metabolic stability, aqueous solubility, and MDCK-MDR1 cell permeability for 15 screening hits against T. b. brucei. | column: Solubility ^c / (µg/mL)

[7] = Mouse pharmacokinetics (plasma, whole blood, brain); assay type: in vivo, male CD-1 mice; details: for bioavailability: from dose normalised AUClast values, read-out: F (oral bioavailability); for Vd: read-out: Vdss
Protocol: In order to determine the suitability of the more permeable hits for in vivo efficacy studies, we first measured their aqueous solubilities, and their tendencies to metabolise, following a 1 h incubation with CD-1 mouse liver S9 subcellular fractions.[14] […] This led us to probe their in vivo pharmacokinetic (PK) profiles in mice, examining concentration levels in plasma, whole blood and brain tissue following both intravenous and oral administration (Table 2; for further experimental details, see the Supporting Information). […]
Mouse Pharmacokinetics. The in-life portion of PK testing was carried out by ViviSource Laboratories, Inc., Mass achusetts, USA, and PK samples were anal ysed by Sc ynexis, Inc.
Test compounds (9, 12, 17, and 19) w er e each administered as single doses to groups of 10 male CD-1 mice by bolus intravenous injection or oral gavage. Intravenous dosing (at a nominal dose of 2 mg/kg) emplo yed a solution vehicle comprising either 20% EtOH, 20% propylene gl ycol, and 30% PEG -400 in normal saline (for powders 9, 17, and 19) or 0.5% (hydrox yprop yl)meth ylcellulose, 0.4% Tween 80, 0.5% benz yl alcohol, and 20% DMSO i n deionised water (for oil 12). […]
in 0.5% methylcellulose, 0.08% Tween 80 in water ( ex cept fo r oil 12, where the formulation additionally contained 20% DMSO). […]

[8] = in vitro; details: dog, MDCK-MDR1, Permeability Papp
[9] = late stage HAT patients; cited from earlier work
[10] = male, CD-1, mouse, brain, intravenous, corrected doses 0.5, 1.1, 2.9, 2.0 mg/kg for 9, 12, 17, 19
[11] = male, CD-1, mouse, brain, oral, corrected doses 62, 50, 78, 49 mg/kg for 9, 12, 17, 19
[12] = male, CD-1, mouse, plasma, intravenous, corrected doses 0.5, 1.1, 2.9, 2.0 mg/kg for 9, 12, 17, 19
[13] = male, CD-1, mouse, plasma, oral, corrected doses 62, 50, 78, 49 mg/kg for 9, 12, 17, 19
[14] = male, CD-1, mouse, whole blood, intravenous, corrected doses 0.5, 1.1, 2.9, 2.0 mg/kg for 9, 12, 17, 19
[15] = male, CD-1, mouse, whole blood, oral, corrected doses 62, 50, 78, 49 mg/kg for 9, 12, 17, 19

SMILES: O=[N+]([O-])c1cn2c(n1)OC[C@@H](OCc1ccc(OC(F)(F)F)cc1)C2 [Compound 6, pretomanid]
- IC50 [1]: 38 µM
- oral half-life in mouse lung tissue [2]: 4.8 h

SMILES: O=[N+]([O-])c1cn2c(n1)OC[C@@H](NCc1ccc(OC(F)(F)F)cc1)C2 [Compound 17]
- Selectivity Index ([3]; L929 vs T. b. brucei): >13
- IC50 ([3]; Trypanosoma brucei, growth inhibition of T. b. brucei 427, mean ± SD): 0.78 ± 0.01 µg/mL (≈ 2.18 µM)
- IC50 [4]: > 10 µg/mL
- half-life [5]: > 5.83 h
- solubility [6]: > 72 µg/mL
- time beyond which exposure above the MIC is inadequate ([7]; male, CD-1, mouse, in vivo, po): ~2 h
- half-life ([7]; male, CD-1, mouse, po, 78 mg/kg, over plasma, whole blood, brain, read-out: oral half-life): 1.2 to 1.5 h
- bioavailability ([7]; male, CD-1, mouse, po, brain): 100%
- bioavailability ([7]; male, CD-1, mouse, po, plasma): 100%
- bioavailability ([7]; male, CD-1, mouse, po, whole blood): 100%
- AUC(0-t) [7, 10]: 962 ng·h/mL
- clearance [7, 10]: 48.3 mL/min/kg
- Vd [7, 10]: 2.3 L/kg
- half-life ([7]; male, CD-1, mouse, brain, intravenous, corrected doses 0.5, 1.1, 2.9, 2.0 mg/kg for 9, 12, 17, 19, read-out: t1/2 (converted)): 0.26 h
- AUC(0-t) [7, 11]: 50900 ng·h/mL
- Cmax [7, 11]: 35000 ng/mL
- Tmax [7, 11]: 0.5 h
- half-life ([7]; male, CD-1, mouse, brain, oral, corrected doses 62, 50, 78, 49 mg/kg for 9, 12, 17, 19, read-out: t1/2 (converted)): 1.3 h
- AUC(0-t) [7, 12]: 418 ng·h/mL
- clearance [7, 12]: 113 mL/min/kg
- Vd [7, 12]: 4.7 L/kg
- half-life ([7]; male, CD-1, mouse, plasma, intravenous, corrected doses 0.5, 1.1, 2.9, 2.0 mg/kg for 9, 12, 17, 19, read-out: t1/2 (converted)): 0.48 h
- AUC(0-t) [7, 13]: 20500 ng·h/mL
- Cmax [7, 13]: 12000 ng/mL
- Tmax [7, 13]: 1 h
- half-life ([7]; male, CD-1, mouse, plasma, oral, corrected doses 62, 50, 78, 49 mg/kg for 9, 12, 17, 19, read-out: t1/2 (converted)): 1.2 h
- AUC(0-t) [7, 14]: 1100 ng·h/mL
- clearance [7, 14]: 40 mL/min/kg
- Vd [7, 14]: 8.1 L/kg
- half-life ([7]; male, CD-1, mouse, whole blood, intravenous, corrected doses 0.5, 1.1, 2.9, 2.0 mg/kg for 9, 12, 17, 19, read-out: t1/2 (converted)): 9.3 h
- AUC(0-t) [7, 15]: 42200 ng·h/mL
- Cmax [7, 15]: 26000 ng/mL
- Tmax [7, 15]: 0.5 h
- half-life ([7]; male, CD-1, mouse, whole blood, oral, corrected doses 62, 50, 78, 49 mg/kg for 9, 12, 17, 19, read-out: t1/2 (converted)): 1.5 h
- concentration levels in brain tissue relative to plasma (fold higher) ([7]; mouse, in vivo): 2- to 3 fold
- oral half-life in mouse lung tissue [2]: 1.3 h
- Papp at 1 h, 3 µM [8]: 80.4 ×10⁻⁶ cm/s

SMILES: Nc1nc(N)nc(Nc2ccc([As]3SCC(CO)S3)cc2)n1 (stereo not shown) [melarsoprol]
- death of patients caused by treatment [9]: ~5%
